Test results: patent US10669284B2, “Fused thiazolopyrimidine derivatives as MNKS inhibitors” (LIFEARC, priority 2015, dated 2020)

Legend:
Full-length human MNK1 = molecular target: T1, Full-length human MNK1 (Homo sapiens, UniProt Q9BUB5, T385D); assay: MNK1 biochemical IC50 assay (Caliper Mobility Shift Assay); details: read-out: P(IC50) MNK1 (converted)
T1 construct: GST (N); purchased Carna Biosciences 02-145; host or cells: baculovirus expression system

Full-length human MNK2 = molecular target: T2, Full-length human MNK2 (Homo sapiens, UniProt Q9HBH9, T379D); assay: MNK2 biochemical IC50 assay (Caliper Mobility Shift Assay); details: read-out: P(IC50) MNK2 (converted)
T2 construct: GST (N); purchased Carna Biosciences 02-146; host or cells: baculovirus expression system

[1] = system: phosphorylation of eIF4E at ser209 in MV4.11 cell line; assay: MNK cellular activity phospho-eIF4E detection assay (Alphascreen Surefire); type: cell-based; details: Homo sapiens; MV4.11 cell line, phospho-eIF4E (ser209) Alphascreen Surefire; read-out: P(IC50) elF4E (converted)
Procedure, shortened: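 AlphaScreen SureFire sandwich-immunoassay readout of phospho-eIF4E Ser209 in lysed MV4.11 cells; acceptor then donor beads, each 1.5 hr at room temperature. Signal normalised to untreated DMSO-only controls; duplicate curves, values averaged over at least 2 independent experiments.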

T1 sequence (Q9BUB5 1-424 isoform Q9BUB5-2 T344D): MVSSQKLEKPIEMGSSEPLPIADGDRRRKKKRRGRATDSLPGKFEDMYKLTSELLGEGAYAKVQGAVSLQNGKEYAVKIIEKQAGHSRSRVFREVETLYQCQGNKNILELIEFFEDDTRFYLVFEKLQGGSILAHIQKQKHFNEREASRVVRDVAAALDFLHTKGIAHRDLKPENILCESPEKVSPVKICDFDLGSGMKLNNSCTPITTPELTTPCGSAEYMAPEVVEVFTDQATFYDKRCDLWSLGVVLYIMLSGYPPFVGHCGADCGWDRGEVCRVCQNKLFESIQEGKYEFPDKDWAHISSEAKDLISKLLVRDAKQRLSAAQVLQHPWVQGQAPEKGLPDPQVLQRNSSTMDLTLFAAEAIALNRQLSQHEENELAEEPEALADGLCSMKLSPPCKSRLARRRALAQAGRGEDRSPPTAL
T2 sequence (Q9HBH9 whole entry T379D): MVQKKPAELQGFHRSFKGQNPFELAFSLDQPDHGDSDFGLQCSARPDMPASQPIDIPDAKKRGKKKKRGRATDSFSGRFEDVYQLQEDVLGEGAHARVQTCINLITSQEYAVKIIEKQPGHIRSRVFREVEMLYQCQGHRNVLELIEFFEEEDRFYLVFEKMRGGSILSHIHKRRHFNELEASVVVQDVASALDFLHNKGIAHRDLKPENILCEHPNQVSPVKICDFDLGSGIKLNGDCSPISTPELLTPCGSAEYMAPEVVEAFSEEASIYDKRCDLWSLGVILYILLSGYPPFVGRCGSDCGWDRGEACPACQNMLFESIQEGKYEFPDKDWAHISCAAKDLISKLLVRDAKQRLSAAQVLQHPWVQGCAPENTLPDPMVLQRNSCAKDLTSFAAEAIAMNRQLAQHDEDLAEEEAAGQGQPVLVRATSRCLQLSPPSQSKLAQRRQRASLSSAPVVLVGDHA

| SMILES | IC50 (Full-length human MNK1) [nM] | IC50 (Full-length human MNK2) [nM] | IC50 [1] [nM] |
| --- | --- | --- | --- |
| CNC(=O)c1nc2c(N3CC(C)c4ccccc43)ncnc2s1 (stereo not drawn) [Example 156, N-methyl-7-(3-methylindolin-1-yl)thiazolo[5,4-d]pyrimidine-2-carboxamide] | 10 | 7.94 | 5.01 |
| O=C(NCC1CCNCC1)c1nc2c(N3c4ccccc4C[C@H]3CO)ncnc2s1 [Example 137] | 200 | 126 | 158 |
| CO[C@@H]1CCC[C@H](Oc2cc(F)ccc2Nc2ncnc3sc(C(=O)NCC4CCNCC4)nc23)C1 [Example 61, 7-[4-fluoro-2-[(1S,3R)-3-methoxycyclohexoxy]anilino]-N-(4-piperidylmethyl)thiazolo[5,4-d]pyrimidine-2-carboxamide] | 100 | 126 | 79.4 |
| CC(C)Oc1cc(F)ccc1Nc1ncnc2sc(C(=O)NC3CCNCC3)nc12 [Example 31, 7-{[4-Fluoro-2-(propan-2-yloxy)phenyl]amino}-N-(piperidin-4-yl)[1,3]thiazolo[5,4-d]pyrimidine-2-carboxamide] | 63.1 | 50.1 | 50.1 |
| O=C(NCC1CCNCC1)c1nc2c(Nc3ccc4[nH]ncc4c3)ncnc2s1 [Example 50, 7-(1H-indazol-5-ylamino)-N-(4-piperidylmethyl)thiazolo[5,4-d]pyrimidine-2-carboxamide] | 20 | 31.6 | 794 |
| CNCCCNC(=O)c1nc2c(N3c4ccccc4C[C@@H]3C)ncnc2s1 [Example 131, N-[3-(methylamino)propyl]-7-[(2S)-2-methylindolin-1-yl]thiazolo[5,4-d]pyrimidine-2-carboxamide] | 100 | 31.6 | 39.8 |
| O=C(NCC1CCNCC1)c1nc2c(Nc3ccc(F)cc3OC3CCCC3)ncnc2s1 [Example 51, 7-[2-(cyclopentoxy)-4-fluoro-anilino]-N-(4-piperidylmethyl)thiazolo[5,4-d]pyrimidine-2-carboxamide] | 126 | 100 | 126 |
| CNCCC1CN(c2ncnc3sc(C(=O)NC4CCOCC4)nc23)c2ccccc21 (stereo not drawn) [Example 115, 7-[3-[2-(Methylamino)ethyl]indolin-1-yl]-N-tetrahydropyran-4-yl-thiazolo[5,4-d]pyrimidine-2-carboxamide] | 31.6 | 15.8 | 126 |
| CNC(=O)c1nc2c(N3CC(CCO)c4ccccc43)ncnc2s1 (stereo not drawn) [Example 157] | 31.6 | 20 | 10 |
| CO[C@@H]1CCCC[C@H]1Oc1cc(F)ccc1Nc1ncnc2sc(C(=O)NCCCN(C)C)nc12 [Example 20, N-[3-(dimethylamino)propyl]-7-[4-fluoro-2-[(1R,2R)-2-methoxycyclohexoxy]anilino]thiazolo[5,4-d]pyrimidine-2-carboxamide] | 794 | 398 | 316 |
| O=C(NC1CCOCC1)c1nc2c(N3CC(CCN4CCOCC4)c4ccccc43)ncnc2s1 (stereo not drawn) [Example 154, 7-[3-(2-morpholinoethyl)indolin-1-yl]-N-tetrahydropyran-4-yl-thiazolo[5,4-d]pyrimidine-2-carboxamide] | 79.4 | 79.4 | 100 |
| CC1(C)CN(c2ncnc3sc(C(=O)NC4CCNCC4)nc23)c2ccccc21 [Example 162] | 6.31 | 5.01 | 7.94 |
| CC(C)Oc1cc(F)ccc1Nc1ncnc2scnc12 [Example 47, N-[4-fluoro-2-(propan-2-yloxy)phenyl][1,3]thiazolo[5,4-d]pyrimidin-7-amine] | 251 | 200 | 126 |
| O=C(NC1CCOCC1)c1nc2c(N3CCc4cc(C(F)(F)F)ccc43)ncnc2s1 [Example 112, N-(tetrahydro-2H-pyran-4-yl)-7-(5-(trifluoromethyl)indolin-1-yl)thiazolo[5,4-d]pyrimidine-2-carboxamide] | 200 | 126 | 316 |
| Fc1ccc2c(c1)CCN2c1ncnc2scnc12 [Example 171, 7-(5-Fluoroindolin-1-yl)thiazolo[5,4-d]pyrimidine] | 79.4 | 63.1 | 251 |
| CN(C)CCNC(=O)c1nc2c(N3CCc4cc(F)ccc43)ncnc2s1 [Example 73, N-[2-(dimethylamino)ethyl]-7-(5-fluoroindolin-1-yl)thiazolo[5,4-d]pyrimidine-2-carboxamide] | 5.01 | 5.01 | 15.8 |
